These are literature values, as cited in patent publication US8198020B2, “Compositions and methods for enhancing phagocytosis or phagocyte activity” (Potentia Pharmaceuticals, Inc., priority 2003, dated 2012).

The data set relates to metastatic colorectal cancer. Particulars: patients with metastatic colorectal cancer; prolonged from 15.6.

Regarding “Avastin: recombinant monoclonal antibody that binds to VEGF”, the median survival is 18.3 months.
